Values after ≈ are worked out from the molar mass of the structure shown. “Also recorded” adds a separate entry of the source. Marks after values point to notes of the source that are not given here.

The values that follow come from paper PMC12409580, “Modulating Receptor Activity, Immune Response, and Kinetic Solubility: The Impact of Linker Chemistry in Conjugated NOD2/TLR4 Agonists” (ACS Omega, 2025).

Series [1] in a line: Kinetic solubility in PBS (HPLC solubility assay). As to conditions: aqueous buffer, kinetic from dmso stock.
On the set-up of series [2]: method as in previously reported. The note with it: ref previously reported; cited from earlier work.
On the set-up of series [3]: method as in previous studies. As to conditions: kinetic solubility; ref previous studies; cited from earlier work.
The target in a further series is NOD2 (Homo sapiens, UniProt Q9HC29). Kind of series: NOD2 NF-κB SEAP reporter assay in HEK-Blue hNOD2 cells.
NOD2, sequence (Q9HC29 whole entry): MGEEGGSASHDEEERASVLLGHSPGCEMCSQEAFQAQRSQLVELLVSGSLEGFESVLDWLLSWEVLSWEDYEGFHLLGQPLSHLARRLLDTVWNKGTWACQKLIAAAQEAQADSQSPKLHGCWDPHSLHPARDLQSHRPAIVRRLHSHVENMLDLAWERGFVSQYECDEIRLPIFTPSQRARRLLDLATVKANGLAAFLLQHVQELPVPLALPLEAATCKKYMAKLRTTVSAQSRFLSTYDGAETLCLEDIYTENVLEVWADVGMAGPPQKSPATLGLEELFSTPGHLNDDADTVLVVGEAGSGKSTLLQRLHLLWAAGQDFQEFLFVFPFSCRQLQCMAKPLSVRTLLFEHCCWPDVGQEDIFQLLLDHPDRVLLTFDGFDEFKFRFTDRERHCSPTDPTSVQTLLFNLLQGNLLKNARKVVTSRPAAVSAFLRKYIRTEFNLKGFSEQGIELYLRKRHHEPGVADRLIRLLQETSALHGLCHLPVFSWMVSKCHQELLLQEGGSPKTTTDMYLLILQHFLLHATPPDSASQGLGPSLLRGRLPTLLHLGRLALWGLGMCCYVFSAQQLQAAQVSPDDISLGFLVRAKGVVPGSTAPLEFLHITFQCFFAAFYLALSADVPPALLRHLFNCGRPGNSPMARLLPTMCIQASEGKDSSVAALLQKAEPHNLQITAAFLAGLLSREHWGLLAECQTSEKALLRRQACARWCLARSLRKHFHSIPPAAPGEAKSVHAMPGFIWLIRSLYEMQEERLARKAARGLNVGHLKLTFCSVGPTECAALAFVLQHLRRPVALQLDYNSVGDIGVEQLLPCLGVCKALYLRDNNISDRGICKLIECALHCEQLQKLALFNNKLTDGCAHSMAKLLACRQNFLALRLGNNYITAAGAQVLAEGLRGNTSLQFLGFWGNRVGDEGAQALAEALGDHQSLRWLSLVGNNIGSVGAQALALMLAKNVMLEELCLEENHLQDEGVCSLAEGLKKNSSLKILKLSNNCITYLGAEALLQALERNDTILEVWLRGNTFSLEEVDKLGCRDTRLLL
Another series concerns human PBMCs. As to conditions: 1 μM, 18 h.
The next series has as its target TLR4 (Homo sapiens, UniProt O00206+Q9Y6Y9). Kind of series: TLR4 NF-κB SEAP reporter assay in HEK-Blue hTLR4 cells. As to conditions: for TLR4 activation at 10 μM, fold increase / TLR4 activation at 100 μM, fold increase: 18 h, NF-κB transcriptional activity (SEAP) relative to 0.1% DMSO. A general note: Reporter assays use an easily measured gene product as a stand-in for the process of interest.

Setting [4] is: PBS, Solubility sample 1, Tables S1–S3, replicate 1.
Setting [5] is: PBS, Solubility sample 2, Tables S1–S3, replicate 2.
Where [6] appears, read: PBS, solubility in PBS, kinetic solubility, HPLC solubility assay.
[7] abbreviates: 18 h, NF-κB transcriptional activity (SEAP) relative to 0.1% DMSO.
The mark [8] stands for this setting: Average solubility, Tables S1–S3, average of two samples.
The mark [9] stands for this setting: Solubility sample 1, Tables S1–S3, replicate 1.
[10] abbreviates: Solubility sample 2, Tables S1–S3, replicate 2.
[11] abbreviates: solubility in PBS, kinetic solubility, HPLC solubility assay.

TLR4, sequence (O00206 24-839): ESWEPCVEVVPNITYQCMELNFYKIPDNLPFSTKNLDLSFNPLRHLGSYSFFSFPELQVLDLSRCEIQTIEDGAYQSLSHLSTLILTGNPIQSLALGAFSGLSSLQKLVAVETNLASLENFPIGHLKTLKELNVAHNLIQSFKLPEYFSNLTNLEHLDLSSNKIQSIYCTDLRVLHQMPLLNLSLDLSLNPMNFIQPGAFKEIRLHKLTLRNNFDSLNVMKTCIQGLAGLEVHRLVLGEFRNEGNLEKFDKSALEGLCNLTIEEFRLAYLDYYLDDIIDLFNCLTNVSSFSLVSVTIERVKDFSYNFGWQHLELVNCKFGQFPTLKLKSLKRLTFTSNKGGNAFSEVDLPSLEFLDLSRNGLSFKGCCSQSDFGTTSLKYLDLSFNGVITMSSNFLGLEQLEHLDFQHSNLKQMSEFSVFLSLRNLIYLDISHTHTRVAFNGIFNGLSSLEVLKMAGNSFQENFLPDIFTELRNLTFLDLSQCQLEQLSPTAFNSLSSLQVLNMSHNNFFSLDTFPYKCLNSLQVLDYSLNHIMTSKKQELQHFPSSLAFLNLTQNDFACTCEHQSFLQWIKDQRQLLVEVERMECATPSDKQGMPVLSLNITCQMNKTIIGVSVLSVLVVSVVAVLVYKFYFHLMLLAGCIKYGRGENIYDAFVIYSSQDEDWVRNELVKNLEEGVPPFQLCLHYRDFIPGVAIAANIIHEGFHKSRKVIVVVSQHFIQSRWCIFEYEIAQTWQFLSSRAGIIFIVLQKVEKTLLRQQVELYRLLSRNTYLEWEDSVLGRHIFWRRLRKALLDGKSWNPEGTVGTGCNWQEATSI
TLR4, sequence (Q9Y6Y9 17-160 limits assumed): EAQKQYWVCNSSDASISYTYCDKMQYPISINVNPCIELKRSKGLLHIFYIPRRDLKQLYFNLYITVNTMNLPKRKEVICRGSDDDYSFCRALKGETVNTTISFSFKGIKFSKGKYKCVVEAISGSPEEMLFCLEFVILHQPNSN

In the case of `COc1cc(/C=C/C(=O)NCC(=O)N[C@H](C(=O)N[C@H](CCC(=O)OC2CCCC2)C(=O)OC2CCCC2)C(C)C)ccc1OC(=O)CCCCCNC(=O)CSc1nc2c([nH]c3ccccc32)c(=O)n1-c1ccccc1` [Compound 2, reference compound], the solubility – broadly, how much of the substance goes into solution per volume – came to 0.26 µM (≈ 0.276 µg/mL) in series [1] (setting [4]), 0.44 µM (≈ 0.467 µg/mL) in series [1] (setting [5]) and 0.35 µM (≈ 0.372 µg/mL) in series [1] (setting [6]). Also, the immunostimulatory activity entry in series [2] is recorded as “inactivity; also recorded: lacked immunostimulatory activity”.
With `CCOC(=O)C(CCC(=O)O)NC(=O)C(NC(=O)CNC(=O)C=Cc1ccc(O)c(OC)c1)C(C)C` (stereo not drawn) [Compound 3, reference compound], the “solubility in PBS” value in series [3] is recorded as 414.8 ^c μM. Also, the “NOD2 activation, fold increase” value on NOD2 (2 μM, 18 h, NF-κB transcriptional activity (SEAP) relative to 0.1% DMSO) is on record as 3.06 ^d fold increase.
As for `CCOC(=O)[C@@H](CCC(=O)N1CCC(CN2CCN(C(=O)Cc3ccc(C(C(=O)NC4CCCC4)N(C(=O)c4cc(-c5ccccc5)n(-c5ccccc5)n4)c4ccc5c(c4)CCC5)cc3)CC2)CC1)NC(=O)[C@@H](NC(=O)CNC(=O)/C=C/c1ccc(O)c(OC)c1)C(C)C` (stereo partly drawn) [Compound 21, Ethyl (2R)-5-(4-((4-(2-(4-(2-(Cyclopentylamino)-1-(N-(2,3-dihydro-1H-inden-5-yl)-1,5-diphenyl-1H-pyrazole-3-carboxamido)-2-oxoethyl)phenyl)acetyl)piperazin-1-yl)methyl)piperidin-1-yl)-2-((S)-2-(2-((E)-3-(4-hydroxy-3-methoxyphenyl)acrylamido)acetamido)-3-methylbutanamido)-5-oxopentanoate], the figures for the solubility in series [1] (setting [4]), in series [1] (setting [5]) and in series [1] (setting [6]) were 0.34 µM (≈ 0.44 µg/mL), 0.32 µM (≈ 0.414 µg/mL) and 0.33 µM (≈ 0.427 µg/mL), respectively. The “overall cytokine production” value in the series with human PBMCs is listed as “most potent immunomodulator in the series”. In the series on human PBMCs, the “production of IL-6, IL-10, TNF-α, and IFN-γ” value was “moderately enhanced”. For the same compound, on NOD2 (setting [7]), the “NOD2 activation at 10 μM, fold increase” value was found to be 3.31 fold increase. Further, at NOD2 (compared with NOD2 agonist 3 and MDP (4 μM)), the “NOD2 agonist activity” value is “comparable efficiency to MDP”. Moreover, at TLR4, the “TLR4 activation at 10 μM, fold increase” value is reported as 5.30 fold increase. Further, the “maximum TLR4 activation” value on TLR4 (HEK-Blue hTLR4, 21 at 10 μM) came out at 5.30 fold. Also, the “concentration at which compound activated TLR4” value on TLR4 (dose-response 0.5–10 μM (17–21) or 1–100 μM (27–31)) stood at 0.5 µM.
Regarding `CCOC(=O)[C@H](CCC(=O)NCCOCCOCCNC(=O)CSc1nc2c([nH]c3ccccc32)c(=O)n1-c1ccccc1)NC(=O)[C@H](NC(=O)CNC(=O)/C=C/c1ccc(O)c(OC)c1)C(C)C` [Compound 29, Ethyl (S)-16-((R)-2-(2-((E)-3-(4-Hydroxy-3-methoxyphenyl)acrylamido)acetamido)-3-methylbutanamido)-2,13-dioxo-1-((4-oxo-3-phenyl-4,5-dihydro-3H-pyrimido[5,4-b]indol-2-yl)thio)-6,9-dioxa-3,12-diazaheptadecan-17-oate], the solubility in series [1] (setting [8]) was 238 µM (≈ 231 µg/mL); in series [1] (setting [9]), 232 µM (≈ 225 µg/mL); in series [1] (setting [10]), 244 µM (≈ 237 µg/mL); in series [1] (setting [11]) it was 238 µM (≈ 231 µg/mL). Moreover, the “NOD2 activation at 10 μM, fold increase” value on NOD2 (setting [7]) worked out at 1.60 fold increase. Further, the “TLR4 activation at 10 μM, fold increase” value on TLR4 worked out at 1.00 fold increase. In addition, the “TLR4 activation at 100 μM, fold increase” value at TLR4 came to 1.43 fold increase.
Turning to `CCOC(=O)[C@@H](CCC(=O)NCCCOCCOCCOCCCNC(=O)CSc1nc2c([nH]c3ccccc32)c(=O)n1-c1ccccc1)NC(=O)[C@@H](NC(=O)CNC(=O)/C=C/c1ccc(O)c(OC)c1)C(C)C` [Compound 30, Ethyl (R)-21-((S)-2-(2-((E)-3-(4-Hydroxy-3-methoxyphenyl)acrylamido)acetamido)-3-methylbutanamido)-2,18-dioxo-1-((4-oxo-3-phenyl-4,5-dihydro-3H-pyrimido[5,4-b]indol-2-yl)thio)-7,10,13-trioxa-3,17-diazadocosan-22-oate], the solubility was 122 µM (≈ 128 µg/mL) in series [1] (setting [8]), 124 µM (≈ 129 µg/mL) in series [1] (setting [9]), 121 µM (≈ 126 µg/mL) in series [1] (setting [10]) and 122 µM (≈ 128 µg/mL) in series [1] (setting [11]). At NOD2 (setting [7]), the “NOD2 activation at 10 μM, fold increase” value is 1.55 fold increase. The “TLR4 activation at 10 μM, fold increase” value at TLR4 stood at 1.05 fold increase. Further, the “TLR4 activation at 100 μM, fold increase” value at TLR4 is recorded as 1.36 fold increase.
As for `CCOC(=O)[C@H](CCC(=O)N1CCC(CN2CCN(C(=O)CSc3nc4c([nH]c5ccccc54)c(=O)n3-c3ccccc3)CC2)CC1)NC(=O)[C@H](NC(=O)CNC(=O)/C=C/c1ccc(O)c(OC)c1)C(C)C` [Compound 31, Ethyl (S)-2-((R)-2-(2-((E)-3-(4-Hydroxy-3-methoxyphenyl)acrylamido)acetamido)-3-methylbutanamido)-5-oxo-5-(4-((4-(2-((4-oxo-3-phenyl-4,5-dihydro-3H-pyrimido[5,4-b]indol-2-yl)thio)acetyl)piperazin-1-yl)methyl)piperidin-1-yl)pentanoate], the solubility was 7.22 µM (≈ 7.26 µg/mL) in series [1] (setting [9]), 6.15 µM (≈ 6.19 µg/mL) in series [1] (setting [10]) and 6.68 µM (≈ 6.72 µg/mL) in series [1] (setting [11]). Besides, the “NOD2 activation at 10 μM, fold increase” value at NOD2 (setting [7]) was determined as 3.33 fold increase. Also, the “TLR4 activation at 10 μM, fold increase” value at TLR4 is recorded as 1.05 fold increase. The “TLR4 activation at 100 μM, fold increase” value at TLR4 stood at 2.26 fold increase.
